Key:
[1] = Cytotoxicity against HEPG2 cells assessed as cell viability at 200 ug/ml by MTT method; format: cell-based; conditions: human, read-out: Activity
[2] = Cytotoxicity against C2C12 cells assessed as cell viability at 200 ug/ml by MTT method; format: cell-based, Homo sapiens; conditions: read-out: Activity
[3] = Cytotoxicity against HEPG2 cells assessed as cell viability at 200 ug/ml after 24 hrs by MTT method; format: cell-based; conditions: human, read-out: Activity
[4] = Cytotoxicity against C2C12 cells assessed as cell viability at 200 ug/ml after 24 hrs by MTT method; format: cell-based; conditions: read-out: Activity
C2C12 = assay: Cytotoxicity against C2C12 cells assessed as cell viability upto 30 ug/ml after 24 hrs by MTT method; format: cell-based; conditions: c2c12, 24 h

Structure (SMILES): CCCCCC(=O)OCCN(CCOC(=O)CCN(CCC(=O)OC)CCN1CCC(=O)OCCCN2CCOC(=O)CCN(CCC(=O)OCCN(CCOC(=O)CCCCC)C(COC(=O)CCCCC)(COC(=O)CCCCC)COC(=O)CCN3CCC(=O)OCC2(CO)COC(=O)CCN(CCN(CCC(=O)OC)CCC(=O)OCC(COC(=O)CCCCC)(COC(=O)CCCCC)N(CCOC(=O)CCCCC)CCOC(=O)CCCCC)CCC(=O)OCCN(C(CO)(COC(=O)CCCCC)COC(=O)CCCCC)CCOC(=O)CCN(CCC(=O)OCC(COC(=O)CCCCC)(COC(=O)CCCCC)N(CCOC(=O)CCCCC)CCOC(=O)CCCCC)CC3)CCN(CCC(=O)OC)CC(=O)OCCN(CCOC(=O)CCCCC)C(CO)(COC(=O)CCCCC)COC(=O)CC1)C(CO)(COC(=O)CCCCC)COC(=O)CCCCC (stereo not given)
- viability at 200 ug/ml [1]: 82%
- viability at 200 ug/ml [2]: 73%
- viability at 24 h, 200 ug/ml [3]: 87%
- viability at 24 h, 200 ug/ml [4]: 85%
- Activity (C2C12): Non-toxic

Reference: ChEMBL document CHEMBL1139070, “Synthesis and characterization of poly (amino ester) for slow biodegradable gene delivery vector” (Bioorg Med Chem, 2007)
